The structures appear in SMILES notation. Values after ≈ are worked out from the molar mass of the structure shown.

Holding throughout (assay type): cell-based
For experiment [1], the system named is Fusobacterium nucleatum. As to the kind of experiment: MIC study, 96 well microtiter plate serial dilution. Particulars: F. nucleatum, 37° C., 48 hours, turbidity at 660 nm, read-out: MIC (minimum inhibitory concentration). How it is done: (§1) In vitro tests were conducted with a gram positive supragingival plaque bacterium, Streptococcus mutans. In addition, two subgingival plaque bacteria associated with oral malodor were tested, Porphyromonas gingivalis and Fusobacterium nucleatum. The MIC (Minimum Inhibitory Concentrations) study protocol is as follows. Chlorhexidine was used as a positive control and sterile water was used as a negative control. Salicylaldehyde was suspended in 10% methanol with 3.8% Tween 80. […] 96 well microtiter plates were used for this study. Each well contained […] of bacteria, serially diluted agents and bacterial growth medium. All bacterial cultures were incubated at 37° C. and stationary. Bacterial growth was estimated spectrophotometrically at 660 nm, after 48 hours. The MIC for each test bacteria was defined as the minimum concentration of test compound limiting turbidity to […].

Experiment [2] relates to Porphyromonas gingivalis. The description is as above. Particulars: P. gingivalis, 37° C., 48 hours, turbidity at 660 nm, read-out: MIC (minimum inhibitory concentration). As to the method: as §1
The subject of experiment [3] is Fusobacterium nucleatum. As to the kind of experiment: MBC determination, plating on blood agar. Particulars: F. nucleatum, lowest concentration that killed at least 99.9% of initial inoculum, plates 48 hours at 37° C., read-out: MBC (minimum bactericidal concentration). As to the method:
(§2) The MBC (Minimum bactericidal concentrations) were determined using the 96 well microtiter plate serial dilutions as described above for MIC studies. Serial dilution of cultures in wells showing no visible growth were performed and 10 microliters of culture were plated in triplicate on blood agar plates. Viable colonies were scored after incubation of the plates for 48 hours at 37° C. For each test bacterium, the number of CFU/ml were determined in the initial inoculum. The MBC was defined as the lowest concentration of a test compound that killed at least 99.9% of the cells present in the initial inoculum.

The subject of experiment [4] is Porphyromonas gingivalis. Put plainly: MBC determination, plating on blood agar. Particulars: P. gingivalis, lowest concentration that killed at least 99.9% of initial inoculum, plates 48 hours at 37° C., read-out: MBC (minimum bactericidal concentration). As to the method: as §2
Experiment [5] has as its system Streptococcus mutans. As to the kind of experiment: MIC study, 96 well microtiter plate serial dilution. How it is done:
as §1

Turning to `[H]/N=C(\N/C(=N/[H])NCCCCCCNC(=N)NC(=N)Nc1ccc(Cl)cc1)Nc1ccc(Cl)cc1` [Cholorhexidine, Chlorhexidine, reference compound], the MIC in experiment [1] and in experiment [2] was 1.25 mg/L (≈ 2.47 µM) each time. The MBC in experiment [3] and in experiment [4] was 1.25 mg/L (≈ 2.47 µM) throughout.
`O=Cc1ccccc1O` [salicylaldehyde]: the MIC turned out to be 7.8 mg/L (≈ 63.9 µM) in experiment [1]; 125 mg/L (≈ 1020 µM) in experiment [2]; 1000 mg/L (≈ 8190 µM) in experiment [5] (Streptococcus mutans, S. mutans, 37° C., 48 hours, turbidity at 660 nm, read-out: MIC (minimum inhibitory concentration)). Besides, the “effectiveness against S. mutans (in words)” value in experiment [5] was “not exceptionally effective”. In addition, the MBC in experiment [3] worked out at 15.6 mg/L (≈ 128 µM); in experiment [4], 250 mg/L (≈ 2050 µM).

The record behind these values is patent publication US20040258733A1, “Breath Freshening and Oral Cleansing Product Using Salicylaldehyde” (priority 2002, published 2004).
